ChEMBL document CHEMBL3352775, “Identification of substituted 3-hydroxy-2-mercaptocyclohex-2-enones as potent inhibitors of human lactate dehydrogenase” (Bioorg Med Chem Lett, 2014)
Values after ≈ are worked out from the molar mass of the structure shown.

Experiments:
[1] = target: T1, L-lactate dehydrogenase A chain (Homo sapiens, UniProt P00338); experiment: Inhibition of human recombinant carboxy-terminal His-tagged LDHA by SPR assay in presence of +NADH
[2] = target: T1, L-lactate dehydrogenase A chain; experiment: Inhibition of human recombinant carboxy-terminal His-tagged LDHA by UV endpoint assay
[3] = target: T1, L-lactate dehydrogenase A chain; experiment: Inhibition of human recombinant carboxy-terminal His-tagged LDHA by SPR assay
[4] = Dissociation constant, pKa of the compound; format: physicochemical
[5] = target: T1, L-lactate dehydrogenase A chain; experiment: Inhibition of human recombinant carboxy-terminal His-tagged LDHA by MS endpoint assay
[6] = Aqueous solubility of the compound in PBS buffer at pH 7.2; format: physicochemical
[7] = Fraction unbound in rat plasma by LC-MS/MS analysis; format: ADME, cell-free
[8] = Fraction unbound in human plasma by LC-MS/MS analysis; format: ADME, cell-free
[9] = target: T2, Cytochrome P450 1A2 (Homo sapiens, UniProt P05177); experiment: Inhibition of CYP1A2 (unknown origin); format: ADME
T2 sequence (P05177 whole entry): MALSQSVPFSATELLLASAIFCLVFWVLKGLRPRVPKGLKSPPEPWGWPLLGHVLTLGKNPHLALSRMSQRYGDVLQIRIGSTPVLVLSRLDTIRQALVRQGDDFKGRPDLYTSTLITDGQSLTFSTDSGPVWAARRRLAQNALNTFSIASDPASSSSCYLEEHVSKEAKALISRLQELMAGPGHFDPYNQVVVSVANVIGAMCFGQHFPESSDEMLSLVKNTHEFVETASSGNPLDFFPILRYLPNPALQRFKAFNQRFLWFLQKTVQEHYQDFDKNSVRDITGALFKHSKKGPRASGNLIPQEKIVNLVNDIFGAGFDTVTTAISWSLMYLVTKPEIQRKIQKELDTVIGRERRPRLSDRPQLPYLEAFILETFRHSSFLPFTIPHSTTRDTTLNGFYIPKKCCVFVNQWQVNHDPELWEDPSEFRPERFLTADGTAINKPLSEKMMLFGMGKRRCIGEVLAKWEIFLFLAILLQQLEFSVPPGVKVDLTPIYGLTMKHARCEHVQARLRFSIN

[10] = target: Cytochrome P450 2C9 (Homo sapiens, UniProt P11712); experiment: Inhibition of CYP2C9 (unknown origin); format: ADME
[11] = target: Cytochrome P450 3A4 (Homo sapiens, UniProt P08684); experiment: Inhibition of CYP3A4 (unknown origin); format: ADME
[12] = Clearance in human liver microsomes at 1 uM up to 60 mins by LC-MS/MS analysis; format: ADME
[13] = Clearance in Sprague-Dawley rat liver microsomes at 1 uM up to 60 mins by LC-MS/MS analysis; format: ADME
[14] = Apparent permeability from apical to basolateral side in MDCK cells at 2 uM by LC-MS/MS analysis; format: ADME, cell-based, Canis lupus familiaris; conditions: dog
[15] = target: Cytochrome P450 2D6 (Homo sapiens, UniProt P10635); experiment: Inhibition of CYP2D6 (unknown origin); format: ADME
[16] = target: T3, Malate dehydrogenase, cytoplasmic (Homo sapiens, UniProt P40925); experiment: Inhibition of human recombinant carboxy-terminal His-tagged MDH-1
T3 sequence (P40925 whole entry): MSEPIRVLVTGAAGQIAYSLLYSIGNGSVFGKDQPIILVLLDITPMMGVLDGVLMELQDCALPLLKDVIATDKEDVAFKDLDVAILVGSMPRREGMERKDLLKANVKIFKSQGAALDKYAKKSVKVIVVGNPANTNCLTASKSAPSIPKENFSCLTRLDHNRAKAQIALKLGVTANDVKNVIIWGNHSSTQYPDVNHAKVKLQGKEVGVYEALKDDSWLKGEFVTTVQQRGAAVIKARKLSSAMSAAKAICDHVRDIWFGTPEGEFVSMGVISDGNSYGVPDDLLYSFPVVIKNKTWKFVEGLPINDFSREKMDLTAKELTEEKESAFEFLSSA

[17] = Clearance in Sprague-Dawley rat plasma at 0.5 mg/kg, iv by LC-MS/MS analysis; format: ADME, organism-based; set-up: dose 0.5 mg/kg, route intravenous
[18] = Volume of distribution at steady state in Sprague-Dawley rat at 0.5 mg/kg, iv; format: ADME, organism-based; set-up: dose 0.5 mg/kg, route intravenous; conditions: in vivo, read-out: Vdss
[19] = Half life in Sprague-Dawley rat plasma at 2 mg/kg, po; format: ADME, organism-based; set-up: dose 2 mg/kg, route oral
[20] = target: T4, Malate dehydrogenase, mitochondrial (Homo sapiens, UniProt P40926); experiment: Inhibition of human recombinant carboxy-terminal His-tagged MDH-2
T4 sequence (P40926 whole entry): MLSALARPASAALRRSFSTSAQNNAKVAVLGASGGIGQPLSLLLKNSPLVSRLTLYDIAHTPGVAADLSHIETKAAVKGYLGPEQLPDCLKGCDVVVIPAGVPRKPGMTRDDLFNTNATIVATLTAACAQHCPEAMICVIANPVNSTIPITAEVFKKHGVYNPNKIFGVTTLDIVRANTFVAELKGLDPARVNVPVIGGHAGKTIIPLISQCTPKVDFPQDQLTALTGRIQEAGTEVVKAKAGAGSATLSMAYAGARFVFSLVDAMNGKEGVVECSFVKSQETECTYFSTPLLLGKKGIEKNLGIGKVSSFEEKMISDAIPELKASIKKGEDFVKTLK

[21] = AUC (0 to 24 hrs) in Sprague-Dawley rat at 0.5 mg/kg, iv; format: ADME, organism-based; set-up: time < 24 hr, dose 0.5 mg/kg, route intravenous; conditions: plasma
[22] = Half life in Sprague-Dawley rat plasma at 0.5 mg/kg, iv; format: ADME, organism-based; set-up: dose 0.5 mg/kg, route intravenous
[23] = Oral bioavailability in Sprague-Dawley rat plasma at 2 mg/kg; format: ADME, organism-based
[24] = AUC (0 to 24 hrs) in Sprague-Dawley rat at 2 mg/kg, po; format: ADME, organism-based; set-up: time < 24 hr, dose 2 mg/kg, route oral; conditions: plasma
[25] = target: L-lactate dehydrogenase B chain (Homo sapiens, UniProt P07195)
Chain of L-lactate dehydrogenase B chain (P07195 whole entry): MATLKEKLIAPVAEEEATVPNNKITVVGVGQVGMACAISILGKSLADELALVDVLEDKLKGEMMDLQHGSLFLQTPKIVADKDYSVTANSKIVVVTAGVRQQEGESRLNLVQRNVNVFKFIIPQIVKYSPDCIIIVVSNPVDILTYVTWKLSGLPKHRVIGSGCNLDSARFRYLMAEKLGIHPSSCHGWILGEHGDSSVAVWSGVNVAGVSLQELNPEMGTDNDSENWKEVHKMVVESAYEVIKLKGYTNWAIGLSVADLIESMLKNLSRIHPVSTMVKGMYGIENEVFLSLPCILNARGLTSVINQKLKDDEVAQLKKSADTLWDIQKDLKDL
Description: Inhibition of human recombinant carboxy-terminal His-tagged LDHB by UV endpoint assay

Chain of Cytochrome P450 2C9 (P11712 whole entry): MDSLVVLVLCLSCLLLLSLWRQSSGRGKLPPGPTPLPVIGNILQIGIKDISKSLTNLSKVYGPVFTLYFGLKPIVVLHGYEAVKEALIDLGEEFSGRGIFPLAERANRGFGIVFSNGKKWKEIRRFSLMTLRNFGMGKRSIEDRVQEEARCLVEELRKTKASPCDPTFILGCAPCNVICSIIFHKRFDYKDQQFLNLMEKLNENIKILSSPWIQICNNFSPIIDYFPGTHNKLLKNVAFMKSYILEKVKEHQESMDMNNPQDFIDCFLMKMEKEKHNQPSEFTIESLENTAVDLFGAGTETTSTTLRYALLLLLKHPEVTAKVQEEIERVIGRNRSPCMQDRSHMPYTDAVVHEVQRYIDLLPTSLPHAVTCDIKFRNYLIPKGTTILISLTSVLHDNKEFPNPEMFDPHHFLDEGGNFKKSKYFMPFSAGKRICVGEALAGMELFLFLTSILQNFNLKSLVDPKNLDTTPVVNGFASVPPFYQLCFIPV
Chain of Cytochrome P450 2D6 (P10635 whole entry): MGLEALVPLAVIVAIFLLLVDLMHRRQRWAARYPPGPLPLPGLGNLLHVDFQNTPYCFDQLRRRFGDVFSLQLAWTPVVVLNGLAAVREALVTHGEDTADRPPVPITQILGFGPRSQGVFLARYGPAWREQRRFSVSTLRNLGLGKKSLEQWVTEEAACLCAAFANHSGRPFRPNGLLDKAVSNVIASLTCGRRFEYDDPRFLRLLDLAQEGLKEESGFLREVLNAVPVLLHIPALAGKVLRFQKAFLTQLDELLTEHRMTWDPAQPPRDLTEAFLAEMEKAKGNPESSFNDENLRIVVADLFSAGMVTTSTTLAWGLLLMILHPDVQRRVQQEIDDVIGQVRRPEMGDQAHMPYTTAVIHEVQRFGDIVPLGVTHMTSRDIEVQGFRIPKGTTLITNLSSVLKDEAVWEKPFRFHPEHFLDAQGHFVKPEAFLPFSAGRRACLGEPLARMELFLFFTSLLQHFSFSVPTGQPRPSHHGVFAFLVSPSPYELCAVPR
Chain of Cytochrome P450 3A4 (P08684 whole entry): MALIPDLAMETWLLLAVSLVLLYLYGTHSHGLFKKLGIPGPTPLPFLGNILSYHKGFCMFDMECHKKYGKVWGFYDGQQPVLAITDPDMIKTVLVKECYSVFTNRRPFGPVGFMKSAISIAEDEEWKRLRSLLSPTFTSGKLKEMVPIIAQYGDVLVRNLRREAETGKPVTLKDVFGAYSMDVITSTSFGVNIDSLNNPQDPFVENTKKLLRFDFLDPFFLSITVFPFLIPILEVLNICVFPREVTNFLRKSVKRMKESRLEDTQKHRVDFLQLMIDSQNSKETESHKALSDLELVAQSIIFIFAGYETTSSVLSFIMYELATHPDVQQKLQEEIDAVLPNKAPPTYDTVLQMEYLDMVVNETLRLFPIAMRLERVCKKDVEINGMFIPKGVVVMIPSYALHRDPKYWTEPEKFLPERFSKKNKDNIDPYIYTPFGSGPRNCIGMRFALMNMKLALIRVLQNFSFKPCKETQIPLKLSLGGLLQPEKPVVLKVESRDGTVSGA

| IC50 [2] | Kd [3] | solubility [6] | fraction unbound [7] | fraction unbound [8] | IC50 [9] | IC50 [10] | IC50 [11] | CLhep predicted at 1 µM [12] | CLhep predicted at 1 µM [13] | Papp A→B at 2 µM [14] | IC50 [15] | IC50 [25] | other results | Structure (SMILES) |
| --- | --- | --- | --- | --- | --- | --- | --- | --- | --- | --- | --- | --- | --- | --- |
| 1.7 µM | 771 µM |  |  |  |  |  |  |  |  |  |  |  | Kd [1]: 3.5 µM; pKa [4]: 2.63; IC50 [5]: 0.88 µM | O=C1CC(c2ccccc2)CC(O)=C1Sc1ccccc1[N+](=O)[O-] (stereo unspecified) |
| 4.6 µM | 4.3 µM | 147 µM (≈ 48.6 µg/mL) | 0.002 | 0.001 | > 5 µM | > 5 µM | > 5 µM | 3.9 mL/min/kg | 14 mL/min/kg | 18 ×10⁻⁶ cm/s | > 5 µM |  |  | O=C1CC(c2ccccc2)CC(O)=C1Sc1ccccc1Cl (stereo unspecified) |
| 1.6 µM | 1.5 µM | 118 µM (≈ 37.9 µg/mL) | 0.01 | 0.001 | > 5 µM | > 5 µM | > 5 µM | 1.6 mL/min/kg | 5.2 mL/min/kg | 4.1 ×10⁻⁶ cm/s | > 5 µM |  |  | N#Cc1ccccc1SC1=C(O)CC(c2ccccc2)CC1=O (stereo unspecified) |
| 0.87 µM | 1.8 µM | 128 µM (≈ 51.2 µg/mL) | 0.002 | 0.005 | > 5 µM | > 5 µM | > 5 µM | 14 mL/min/kg | 27 mL/min/kg | 17 ×10⁻⁶ cm/s | > 5 µM |  | IC50 [16]: > 100 µM; clearance [17]: 0.35 mL/min/kg; Vd [18]: 0.39 L; half-life [19]: 10.7 h; IC50 [20]: > 100 µM; AUC(0-t) at 24 h [21]: 60.3 µM·h; half-life [22]: 13.2 h; bioavailability [23]: 45%; AUC(0-t) at 24 h [24]: 142 µM·h | O=C1CC(c2c(Cl)cccc2Cl)CC(O)=C1Sc1ccccc1Cl (stereo unspecified) |
| 1 µM | 0.5 µM | 117 µM (≈ 50.7 µg/mL) |  |  | > 5 µM | > 5 µM | > 5 µM | 17 mL/min/kg | 37 mL/min/kg |  | > 5 µM |  |  | O=C1CC(c2c(Cl)cccc2C(F)(F)F)CC(O)=C1Sc1ccccc1Cl (stereo unspecified) |
| 15 µM |  | 143 µM (≈ 66.8 µg/mL) |  |  | > 5 µM | > 5 µM | > 5 µM | 18 mL/min/kg | 38 mL/min/kg |  | > 5 µM | 7.4 µM |  | O=C1CC(c2c(C(F)(F)F)cccc2C(F)(F)F)CC(O)=C1Sc1ccccc1Cl (stereo unspecified) |
| 0.83 µM | 0.43 µM | 117 µM (≈ 45.7 µg/mL) |  |  | > 5 µM | > 5 µM | > 5 µM | 12 mL/min/kg | 24 mL/min/kg |  | > 5 µM | 4.9 µM |  | N#Cc1ccccc1SC1=C(O)CC(c2c(Cl)cccc2Cl)CC1=O (stereo unspecified) |
| 0.45 µM | 0.24 µM | 75 µM (≈ 32.6 µg/mL) | 0.005 | 0.002 | > 5 µM | > 5 µM | > 5 µM | 15 mL/min/kg | 31 mL/min/kg | 14 ×10⁻⁶ cm/s | > 5 µM | 2 µM |  | N#Cc1ccccc1SC1=C(O)CC(c2c(Cl)cccc2Br)CC1=O (stereo unspecified) |
